Reference: paper PMC10400593, “Molecular insights into Spindlin1-HBx interplay and its impact on HBV transcription from cccDNA minichromosome” (Nature Communications, 2023)
Where “and” joins values, the source holds several entries; their conditions need not be identical. Equal entries are not always repeated. Entries after “also recorded” stand apart in the source; their conditions may differ. Where two headings read alike, the source gives them in different places. Where no end group is shown, it is not given here.

Legend:
human Spindlin1_50–262 [1] = target: T1, human Spindlin1_50–262 (Homo sapiens, UniProt Q9Y657); format: binding; parameters: Human Spindlin1_50–262 was cloned into pGEX-6P-1 vector containing an N-terminal GST tag; GST (N, cleaved yes); made in house; host or cells: E. coli BL21(DE3); settings: 25 °C; for ΔS / ΔH / K (association constant): ITC, pH 7.5, free wild-type Spindlin1_50–262; for ΔH / N / K (association constant): mean ± SE; for N: ITC stoichiometry, free wild-type Spindlin1_50–262; for K (association constant): One Set of Binding Sites fit
Procedure: Cells were harvested and lysed in lysis buffer: 0.2 M NaCl, 20 mM Tris, pH 8.0 containing 1 mM fresh PMSF. After centrifugation, the GST-tagged Spindlin1_50–262 was purified by a GST affinity column and then the GST tag was cleaved on-column by a home-made P3C protease overnight. The tag-free protein was collected for an anion-exchange chromatography over a HiTrap Q HP column and Superdex G75 columns (GE Healthcare). The Spindlin1_50–262 protein was concentrated to 25 mg/ml in 0.15 M NaCl, 20 mM Tris, pH 8.0, aliquoted and stored at −80 °C for future use. All Spindlin1_50–262 mutants were generated by the QuikChange site-directed mutagenesis strategy and purified using the same procedure as described above.
(§1) Calorimetric experiments were conducted at 25 °C with a MicroCal PEAQ-ITC instrument (Malvern Instruments) as previously described. The Spindlin1_50–262 samples were extensively dialyzed against the buffer containing 20 mM HepesNa (pH 7.5) and 150 mM NaCl. Protein concentration was determined by absorbance spectroscopy at 280 nm. Peptide concentrations were determined by weighing in large quantities. Each ITC titration consisted of 17 successive injections with 0.4 μl for the first and 2.4 μl for the rest. The intervals between injections were 180 s, and the stirring speed was 750 rpm. […] Acquired calorimetric titration data were fitted at 95% confidence and analyzed using Origin 7.0 (GE Healthcare) using the One Set of Binding Sites fitting model. Data represent the mean ± SE. Detailed thermodynamic parameters of each titration are summarized in the Supplementary Table 2.

HBV RNA = test: Rescue of HBV transcription/expression in Spindlin1 knockdown HepG2-NTCP cells; format: cell-based; settings: ectopic expression in Spindlin1 knockdown cells
Procedure: Cells were harvested with TRIzol™ Reagent (Invitrogen, Carlsbad, CA). The RNA was extracted and precipitated with equal volumes of isopropanol. The RNA pellet was washed with 75% ethanol and dissolved in DEPC-treated H2O. The RNA solution with 1xRNA loading buffer was incubated at 65 °C heat block for 5 min and put on ice for 5 min. Then the RNA sample was subjected to 1.2% agarose gel electrophoresis (with 1xMOPS buffer and 5% formaldehyde solution) and transferred onto Amersham Hybond-N+ membrane (GE Healthcare). After UV crosslinking, the RNA was detected with DIG-labeled full-length HBV genome and DIG-labeled GAPDH probe (DIG-high prime DNA-labeling and detection starter kit II, Roche, cat. No. 11585614910).

HBeAg = settings: ectopic expression in Spindlin1 knockdown cells
Procedure: (§2) Mutations in full-length Spindlin1 were generated by site-directed mutagenesis and confirmed by DNA sequencing. Plasmid DNA and siRNA transfections were performed using Lipofectamine 3000 reagent (Invitrogen) and Lipofectamine RNAiMAX (Invitrogen) according to the manufacturer’s protocol, respectively.
For infections, cells were incubated with viral supernatants in the presence of 10 µg/ml polybrene.
For siRNA knockdown experiments of HepG2-NTCP cells, the siRNAs (sequences are listed in the Supplementary Table 4) were transfected at 3dpi, and incubated with cells for 24 h. Then the cells were maintained in PMM with 2% FBS with regular medium changing every other day. For cccDNA formation experiment, the siRNAs were transfected 48 h before infection and incubated with cells for 24 h. Then the cells were cultured with PMM medium for another […]. The cells were then infected with HBV at 800GEQ in the presence of 5% PEG8000 for 24 h at 37 °C.
HBeAg levels of HBV infected cells were measured using ELISA kits (Wantai Pharm Inc). Supernatants from HBV infected cells were harvested at each time point examined in the various assays and were diluted 4-fold with DMEM before ELISA.

human Spindlin1_50–262 [2] = target: T1, human Spindlin1_50–262; test: ITC
[3] = target: Spindlin1_50-262 & HBx2-21 (Homo sapiens, UniProt Q9Y657); settings: ITC; for K (association constant): 25 °C, pH 7.5, mean ± SE; for N / ΔH: mean ± SE
Procedure: Cells were harvested and lysed in lysis buffer: 0.2 M NaCl, 20 mM Tris, pH 8.0 containing 1 mM fresh PMSF. […] The tag-free protein was collected for an anion-exchange chromatography over a HiTrap Q HP column and Superdex G75 columns (GE Healthcare).
as §1, with “Protein” for “Calorimetric experiments were conducted at 25 °C with a MicroCal PEAQ-ITC instrument (Malvern Instruments) as previously described. The Spindlin1_50–262 samples were extensively dialyzed against the buffer containing 20 mM HepesNa (pH 7.5) and 150 mM NaCl. Protein”

HBx = settings: Huh7 cells, 48 h after co-transfection, WB
Procedure: as §2

Human Spindlin1 50-262 [4] = target: T2, Human Spindlin1 50-262 (human, UniProt Q9Y657 50-262); test: ITC; settings: both partners purified
T2 construct: also called SPIN1; not shown: GST, N-terminal, cleaved

Human Spindlin1 50-262 [5] = target: T2, Human Spindlin1 50-262; test: ITC; settings: both partners purified; remark: listed apart in the source
Human Spindlin1 50-262 [6] = target: T2, Human Spindlin1 50-262; test: ITC; settings: both partners purified; remark: listed apart in the source
Human Spindlin1 50-262 [7] = target: T2, Human Spindlin1 50-262; test: ITC; settings: both partners purified; remark: listed apart in the source
[8] = listed as wild-type (WT) Spindlin1

Chain of Spindlin1_50-262 & HBx2-21 (Q9Y657 whole entry, looked up): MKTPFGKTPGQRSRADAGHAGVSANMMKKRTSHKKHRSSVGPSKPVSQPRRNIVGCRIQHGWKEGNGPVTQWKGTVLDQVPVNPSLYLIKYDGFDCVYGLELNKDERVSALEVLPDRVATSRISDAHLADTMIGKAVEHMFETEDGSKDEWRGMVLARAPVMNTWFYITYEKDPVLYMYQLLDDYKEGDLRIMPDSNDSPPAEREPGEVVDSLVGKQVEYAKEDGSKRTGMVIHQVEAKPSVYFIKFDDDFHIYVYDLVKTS
T1 sequence (Q9Y657 50-262): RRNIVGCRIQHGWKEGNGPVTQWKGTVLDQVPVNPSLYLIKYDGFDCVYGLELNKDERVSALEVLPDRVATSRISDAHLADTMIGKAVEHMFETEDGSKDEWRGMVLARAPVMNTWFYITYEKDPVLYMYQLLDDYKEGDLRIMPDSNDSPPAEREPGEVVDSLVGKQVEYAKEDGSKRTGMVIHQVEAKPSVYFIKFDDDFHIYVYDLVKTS
T2 sequence (Q9Y657 50-262): as above

Ac-CSFSSAGPCALRFTSARRME-NH2 [HBx61-80, HBx array peptide]
ΔS (human Spindlin1_50–262 [1]): -1.7 cal/mol/deg | ΔH (human Spindlin1_50–262 [1]): -6319± 252.7 kal/mol

wild-type Spindlin1: ectopically expressed wild-type Spindlin1
Restoration of HBV transcription/expression (HBV RNA): effectively restored the levels of HBV transcription and HBeAg; also recorded: restored HBV expression | Restoration of HBV transcription/expression (HBV RNA; [8]): restore the levels of HBV transcription and HBeAg | Restoration of HBeAg levels (HBeAg): effectively restored the levels of HBV transcription and HBeAg | Restoration of HBeAg levels (HBeAg; [8]): restore the levels of HBV transcription and HBeAg

AARLCCQLDPARDVLCLRPV-NH2 [HBx-D2-21, HBx-D N-terminal motif peptide]
ΔS (human Spindlin1_50–262 [1]): 18.0 cal/mol/deg | ΔH (human Spindlin1_50–262 [1]): -3096± 42.71 kal/mol

HBx_(11–30) peptide
fold weaker binding than HBx (2–21) (human Spindlin1_50–262 [2]): 44 fold

ARTK(m e3)QTARK(me2)STGGKA-NH2 [H31-15 K4me3K9me2, histone H3 peptide]
ΔS [3]: -12.1 cal/mol/deg | K (association constant) [3]: 1.74e+08 ± 9.28e+07 M⁻¹ | N [3]: 1.0± 0.004 | ΔH [3]: -14860± 139.6 kal/mol | N (human Spindlin1_50–262 [1]): 1.0± 0.002 | ΔS (human Spindlin1_50–262 [1]): -15.3 cal/mol/deg | K (association constant) (human Spindlin1_50–262 [1]): 4.18e+07 ± 4.82e+06 M⁻¹ | ΔH (human Spindlin1_50–262 [1]): -14960± 61.22 kal/mol

K216S/V218R double mutant
Interaction with HBx (Co-IP) (HBx): disrupted Spindlin1-HBx engagement both in vitro and in cellular context | Interaction with HBx (Co-IP) (HBx; listed as Spindlin1 K216S/V218R): significantly compromised | Restoration of HBeAg levels (HBeAg): not the K216S/V218R double mutant that effectively restored

AARLCCQLDSARDVLLLRPF-NH2 [WHx, woodchuck HBx N-terminal motif peptide]
ΔS (human Spindlin1_50–262 [1]): 9.96 cal/mol/deg | ΔH (human Spindlin1_50–262 [1]): -4600± 130.4 kal/mol

Ac-PARDVLCLRPIGAESRGRPL-NH2 [HBx11-30]
ΔS (human Spindlin1_50–262 [1]): 8.2 cal/mol/deg | ΔH (human Spindlin1_50–262 [1]): -3496± 197.8 kal/mol

Ac-GKGGAKRHRK (me3)VLRDNIQGIT-NH2 [H411-30 K20me3, histone H4 peptide]
N [3]: 0.9± 0.010 and 1.0± 0.001 | N (human Spindlin1_50–262 [1]): 1.0± 0.016 | ΔS (human Spindlin1_50–262 [1]): -12.3 cal/mol/deg | ΔH (human Spindlin1_50–262 [1]): -12920± 254.2 kal/mol

AARLCCQLDSSRDVLLLRPL-NH2 [GSHBx, ground squirrel HBx N-terminal motif peptide]
ΔS (human Spindlin1_50–262 [1]): 25.3 cal/mol/deg | ΔH (human Spindlin1_50–262 [1]): -987.3± 23.4 kal/mol

HBx_(2–21) peptide (from UniProt Q69607) V15R
Kd (human Spindlin1_50–262 [2]): 14.4 µM

HBx_(2–21) peptide (from UniProt Q69607) L18R
Kd (human Spindlin1_50–262 [2]): 35.8 µM

HBx2-21 V15R peptide
stoichiometry N (human Spindlin1_50–262 [2]): 1

HBx_(61–80) peptide
fold weaker binding than HBx (2–21) (human Spindlin1_50–262 [2]): 55 fold

W72R
Restoration of HBV transcription/expression (HBV RNA): not its H3K4me3 and H3K9me3-binding deficient mutants

ARTK(m e3)QTAR(me2a)KSTGGKAPRKQL-NH2 [H31-20 K4me3R8me2a, histone H3 peptide]
ΔS [3]: -22.0 cal/mol/deg | K (association constant) [3]: 4.74e+07 ± 7.62e+06 M⁻¹ | N [3]: 1.0± 0.003 | ΔH [3]: -17040± 96.9 kal/mol | N (human Spindlin1_50–262 [1]): 1.0± 0.004 | ΔS (human Spindlin1_50–262 [1]): -23.6 cal/mol/deg | K (association constant) (human Spindlin1_50–262 [1]): 3.2e+07 ± 5.15e+06 M⁻¹ | ΔH (human Spindlin1_50–262 [1]): -17280± 115.8 kal/mol

B1: HBx-D2-21 peptide (peptide)
peptide: AARLCCQLDPARDVLCLRPV-NH2
modifications: cysteine pairing not given here
notes: source: synthetic peptide, bought: Scilight Biotechnology LLC
Kd (Human Spindlin1 50-262 [4]): 0.7 µM | Ka (Human Spindlin1 50-262 [5]): 1.56e+06 M⁻¹ | stoichiometry N (Human Spindlin1 50-262 [5]): 0.951

B2: H3 1-15 K4me3K9me2 peptide (peptide)
peptide: ARTK(me3)QTARK(me2)STGGKA
notes: also called H3K4me3K9me2; source: synthetic peptide, bought: Scilight Biotechnology LLC
Kd (Human Spindlin1 50-262 [6]): 0.0242 µM | Ka (Human Spindlin1 50-262 [5]): 4.18e+07 M⁻¹

B3: HBx11-30 peptide (peptide)
peptide: Ac-PARDVLCLRPIGAESRGRPL-NH2
notes: as for B1
Kd (Human Spindlin1 50-262 [7]): 45.9 µM | Ka (Human Spindlin1 50-262 [5]): 22600 M⁻¹ | stoichiometry N (Human Spindlin1 50-262 [5]): 1.2

B4: HBx61-80 peptide (peptide)
peptide: Ac-CSFSSAGPCALRFTSARRME-NH2
modifications: cysteine pairing not given here
notes: as for B1
Kd (Human Spindlin1 50-262 [7]): 55.5 µM | Ka (Human Spindlin1 50-262 [5]): 18200 M⁻¹ | stoichiometry N (Human Spindlin1 50-262 [5]): 1

B5: WHx2-21 peptide (woodchuck HBx) (peptide)
peptide: AARLCCQLDSARDVLLLRPF-NH2
modifications: cysteine pairing not given here
notes: also called FWHx; source: synthetic peptide, bought: Scilight Biotechnology LLC
Kd (Human Spindlin1 50-262 [4]): 2.9 µM | Ka (Human Spindlin1 50-262 [5]): 354000 M⁻¹ | stoichiometry N (Human Spindlin1 50-262 [5]): 0.9

B6: GSHBx2-21 peptide (ground squirrel HBx) (peptide)
peptide: AARLCCQLDSSRDVLLLRPL-NH2
modifications: cysteine pairing not given here
notes: as for B1
Kd (Human Spindlin1 50-262 [4]): 0.62 µM | Ka (Human Spindlin1 50-262 [5]): 1.83e+06 M⁻¹ | stoichiometry N (Human Spindlin1 50-262 [5]): 1.1
